Test results published in PubChem BioAssay (NCI).
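GI50 = concentration required for 50% inhibition of growth. The concentration for full growth arrest is given as TGI.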

Experiments:
Assay in all cases: NCI-60 cell line screen, 384-well format
MALME-3M melanoma = system: MALME-3M melanoma
SK-OV-3 ovarian = system: SK-OV-3 ovarian
HCT-116 colon = system: HCT-116 colon
BT-549 breast = system: BT-549 breast
MDA-MB-231 breast = system: MDA-MB-231 breast
NCI-H322M lung = system: NCI-H322M lung
COLO 205 colon = system: COLO 205 colon
NCI-H460 NSCLC = system: NCI-H460 NSCLC
EKVX NSCLC = system: EKVX NSCLC
SF-539 CNS = system: SF-539 CNS
HCT-15 colon = system: HCT-15 colon
UO-31 renal = system: UO-31 renal
SR leukemia = system: SR leukemia

Row | SMILES | GI50 (MALME-3M melanoma) | TGI (MALME-3M melanoma) | GI50 (SK-OV-3 ovarian) | TGI (SK-OV-3 ovarian) | GI50 (HCT-116 colon) | TGI (HCT-116 colon) | GI50 (BT-549 breast) | TGI (BT-549 breast) | GI50 (MDA-MB-231 breast) | TGI (MDA-MB-231 breast) | GI50 (NCI-H322M lung) | TGI (NCI-H322M lung) | GI50 (COLO 205 colon) | TGI (COLO 205 colon) | GI50 (NCI-H460 NSCLC) | TGI (NCI-H460 NSCLC) | GI50 (EKVX NSCLC) | TGI (EKVX NSCLC) | GI50 (SF-539 CNS) | TGI (SF-539 CNS) | further results
1 | CC(=O)OC[C@H]1O[C@@H](n2ccc(=O)[nH]c2=O)[C@H](OC(C)=O)[C@@H]1OC(C)=O | > 100 µM | > 100 µM | > 100 µM | > 100 µM | > 100 µM | > 100 µM | > 100 µM | > 100 µM | > 100 µM | > 100 µM | > 100 µM | > 100 µM | > 100 µM | > 100 µM | > 100 µM | > 100 µM | > 100 µM | > 100 µM | > 100 µM | > 100 µM | GI50 (HCT-15 colon): > 100 µM; TGI (HCT-15 colon): > 100 µM; GI50 (UO-31 renal): > 100 µM; TGI (UO-31 renal): > 100 µM; GI50 (SR leukemia): > 100 µM; TGI (SR leukemia): > 100 µM
2 | C#Cc1cccc(Nc2ncnc3cc(OCCOC)c(OCCOC)cc23)c1 | 16.8 µM | > 100 µM | 1.58 µM | 8.28 µM | 11.6 µM | > 100 µM | 14.9 µM | > 100 µM | > 46.6 µM | > 100 µM | 0.193 µM | 1.66 µM | > 100 µM | > 100 µM | 9.81 µM | > 100 µM | 1.93 µM | > 100 µM | 39.3 µM | > 100 µM | GI50 (HCT-15 colon): 4.58 µM; TGI (HCT-15 colon): > 100 µM; GI50 (UO-31 renal): 2.04 µM; TGI (UO-31 renal): > 32.4 µM; GI50 (SR leukemia): 21.4 µM; TGI (SR leukemia): > 67.5 µM
